According to US9527836B2, “Crystal having specific crystal habit and pharmaceutical composition containing the crystal as active ingredient” (POLA PHARMA INC., priority 2013, dated 2016):

How the values were obtained:
[1] = Tablet hardness measurement with hardness meter PTB311; type: physicochemical; details: tablet of 50% by mass lactose and 50% by mass luliconazole, tablet making pressure 1 ton/cm^2, 9 mmφ, average of six samples
Experimental: A tablet was manufactured in accordance with a formulation shown in Table 5 below, and the hardness was measured. PTB311 (produced by Pharma Test GmbH) was used as a hardness meter. As for the tablet making condition, the tablet making was performed at a tablet making pressure of 1 ton/cm^2 by using a pestle and a mortar of 9 mmφ. In Comparative Example, the operation was performed in the same manner as described above by using the crystal (Comparative Example 1) obtained by performing the recrystallization with n-hexane-ethyl acetate.

[2] = system: Trichomonas vaginalis (clinically isolated strain); test: Direct effect on Trichomonas vaginalis culture, number of individuals counted on a hemocytometer; type: cell-based; details: 5.08 mg solid crystal added to Trichomonas medium F; culture of 3.93×10^5 individuals/mL; cultured at 37° C. for 4 days
Experimental: The direct effect of luliconazole was investigated by using Trichomonas vaginalis (clinically isolated strain). That is, there were prepared a sample in which 5.08 mg of luliconazole of Comparative Example 1 recrystallized from n-hexane and ethyl acetate was added to “Trichomonas medium F” (produced by Fuji Pharma Co., Ltd.), a sample in which 5.08 mg of the crystal of Example 2 was added, and a sample (control) in which 5 μL of water was added. […] of a culture of Trichomonas vaginalis of 3.93×10^5 individuals/mL was added thereto, followed by being cultured at 37° C. for 4 days, and the number of individuals of Trichomonas was counted on a hemocytometer. A significant difference was confirmed at a significance level of not more than 1% among the three samples. Accordingly, it is appreciated that the crystal of the present invention is excellent in the solid-state reactivity.

[3] = Dissolution state in ethanol, visually confirmed; type: physicochemical; details: 20 mg crystal in 2 ml ethanol, stationarily placed at 30° C. for 2 hours
Experimental: 20 mg of each of the crystals was weighed, to which 2 ml of ethanol was added, followed by being stored by stationarily placed at 30° C. for 2 hours. The dissolution state was visually confirmed. Accordingly, it is appreciated that the crystal of the present invention is easily dissolved in the polar solvent.

[4] = listed as crystal of Comp. Ex. 1

Row | Hardness [1, 4] [N] | Dissolution state [3, 4] | Dissolution state ([3]; listed as crystal of Example 1) | Hardness ([1]; listed as crystal of Example 2) [N] | Dissolution state ([3]; listed as crystal of Example 2) | SMILES | number of individuals of Trichomonas (Average) [2]
1 | 29.1 ± 3.0 | crystal was found at bottom |  |  |  | N#C/C(=C1/SC[C@@H](c2ccc(Cl)cc2Cl)S1)n1ccnc1 [Comp. Ex. 1, luliconazole, reference compound] | 376000
2 |  |  | no crystal was found |  |  | N#C/C(=C1/SC[C@@H](c2ccc(Cl)cc2Cl)S1)n1ccnc1 [Example 1, luliconazole] | 
3 |  |  |  | 73.7 ± 4.2 | no crystal was found | N#C/C(=C1/SC[C@@H](c2ccc(Cl)cc2Cl)S1)n1ccnc1 [Example 2, luliconazole] | 256000
